In test [1] the test system is drug (ADR or TAM)-resistant MCF-7 HBC cells. Kind of test: MTT cell viability assay, drug-resistant cells. It is filed as cell-based, human. From the text:
Routine maintenance and culture of MDA-MB-231, MDA-MB-468, SKBR-3 (all lack ER and have mutant p53), MCF-7, T47D (both have ER and wild-type p53) HBC cells (Runnebaum, I. B., Nagarajan, M., Bowman, M., Soto, D., and Sukumar, S. (1991). Proc. Natl. Acad. Sci. USA 88, 10657-10661), human prostate cancer PC3 and LnCAP cells, HCT-116 human colon cancer, human pancreatic cancer PANC-1 and BxPC-3, Burkett lymphoma Raji, diffuse large B-cell lymphoma WSU-DLCL2, follicular lymphoma WSU-FSCCL cells, cervical cancer HeLa, human mesothelial Met5a, human pleural malignant mesothelioma (MPM), murine MPM AB12 cells (Wang, Y., Rishi, A. K., Puliyappadamba, V. T., Sharma, S., Yang, H., Tarca, A., Dou, Q. P., Lonardo, F., Ruckdeschel, J. C., Pass, H. I., Wali, A. (2010) Can. Chemother. […]
Logarithmically growing cells were either untreated or treated with different agents for various time periods. […] The cell growth inhibition was assessed by using MTT assay. […]
(In general: Tetrazolium dyes change colour on reduction, which living cells bring about.)

Test [2] has as its target T1, His-TAT-HA-tagged A-epitope peptide [CARP-1 (951-980)] (Homo sapiens, UniProt Q8IX12).
T1 construct: wild-type or scrambled His-TAT-HA-CARP-1 (951-980) peptides; made in house; host or cells: E. coli BL-21 (DE3)
T1 sequence (Q8IX12 951-980 limits assumed): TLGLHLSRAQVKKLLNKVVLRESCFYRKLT
The test can be described thus: In vitro binding of SMIs, immobilized A-epitope peptide pre-incubated with CFM. The note with it: 100 μM, 30 min at RT; WB with anti-Gst. As for the experimental part: The CFM-4 and 5 were separately dissolved in DMSO to obtain a stock of 20-50 mM. For in vitro binding experiments we utilized affinity-purified Gst-APC-2 (685-754) and His-TAT-HA-tagged A-epitope (WT) peptide. Ten nanogram of the His-TAT-HA-tagged A-epitope (WT) peptide was first allowed to bind with Ni-NTA beads (ProBond, InVitrogen), and then the reaction was incubated with DMSO (control), 100 μM CFM-4, or 100 μM CFM-5 for 30 min at RT. The reactions were then subjected to three washes with the binding buffer, followed by incubation with 10 ng of affinity-purified Gst-APC-2 (685-754) peptide for 30 min at RT. The reactions were washed again for three times with PBS, eluted and analyzed on a SDS-PAGE followed by western blotting (WB) with anti-Gst antibodies. A similar strategy was performed by immobilizing the Gst-APC-2 (685-754) peptide with Gst-beads. The beads were washed, incubated with DMSO or the CFMs, and the reactions washed again. The reactions were then allowed to incubate with affinity purified A-epitope peptide, and the complexes analyzed by SDS-PAGE followed by WB with anti HA-tag antibodies.

On to `O=C1N(Cc2ccccc2Cl)c2ccccc2C12NN=C(c1ccccc1)S2` (centres unmarked) [CFM-4, 1-(2-chlorobenzyl)-5′-phenyl-3′H-spiro[indoline-3,2′-[1,3,4]thiadiazol]-2-one], for which the “proliferation of drug-resistant MCF-7 cells (MTT)” value in test [1] is reported as “inhibited proliferation”. The “binding of immobilized A-epitope peptide with Gst-APC-2 (685-754) after pre-incubation with compound” value in test [2] was “abrogated its binding”.

For the origin of these results see patent publication US9598441B2, “Therapeutic compounds and methods” (Wayne State University, priority 2011, dated 2017).
